{
  "source": "ChEMBL document CHEMBL5506055",
  "about": "“Hit-to-Lead Optimization of the Natural Product Oridonin as Novel NLRP3 Inflammasome Inhibitors with Potent Anti-Inflammation Activity” (J Med Chem, 2024)",
  "key": {"Mus musculus": {"tested_on": "Mus musculus", "test": "Antiinflammatory activity in MSU-induced C57BL/6 mouse model of arthritis assessed as reduction in inflammatory cell infiltration at 12.5 mg/kg, iv measured after 24 hrs", "format": "functional, organism-based"}, "[1]": {"biological_target": "NACHT, LRR and PYD domains-containing protein 3 (Mus musculus) (UniProt Q8R4B8)", "sequence (Q8R4B8 whole entry, the tested form may be a part)": "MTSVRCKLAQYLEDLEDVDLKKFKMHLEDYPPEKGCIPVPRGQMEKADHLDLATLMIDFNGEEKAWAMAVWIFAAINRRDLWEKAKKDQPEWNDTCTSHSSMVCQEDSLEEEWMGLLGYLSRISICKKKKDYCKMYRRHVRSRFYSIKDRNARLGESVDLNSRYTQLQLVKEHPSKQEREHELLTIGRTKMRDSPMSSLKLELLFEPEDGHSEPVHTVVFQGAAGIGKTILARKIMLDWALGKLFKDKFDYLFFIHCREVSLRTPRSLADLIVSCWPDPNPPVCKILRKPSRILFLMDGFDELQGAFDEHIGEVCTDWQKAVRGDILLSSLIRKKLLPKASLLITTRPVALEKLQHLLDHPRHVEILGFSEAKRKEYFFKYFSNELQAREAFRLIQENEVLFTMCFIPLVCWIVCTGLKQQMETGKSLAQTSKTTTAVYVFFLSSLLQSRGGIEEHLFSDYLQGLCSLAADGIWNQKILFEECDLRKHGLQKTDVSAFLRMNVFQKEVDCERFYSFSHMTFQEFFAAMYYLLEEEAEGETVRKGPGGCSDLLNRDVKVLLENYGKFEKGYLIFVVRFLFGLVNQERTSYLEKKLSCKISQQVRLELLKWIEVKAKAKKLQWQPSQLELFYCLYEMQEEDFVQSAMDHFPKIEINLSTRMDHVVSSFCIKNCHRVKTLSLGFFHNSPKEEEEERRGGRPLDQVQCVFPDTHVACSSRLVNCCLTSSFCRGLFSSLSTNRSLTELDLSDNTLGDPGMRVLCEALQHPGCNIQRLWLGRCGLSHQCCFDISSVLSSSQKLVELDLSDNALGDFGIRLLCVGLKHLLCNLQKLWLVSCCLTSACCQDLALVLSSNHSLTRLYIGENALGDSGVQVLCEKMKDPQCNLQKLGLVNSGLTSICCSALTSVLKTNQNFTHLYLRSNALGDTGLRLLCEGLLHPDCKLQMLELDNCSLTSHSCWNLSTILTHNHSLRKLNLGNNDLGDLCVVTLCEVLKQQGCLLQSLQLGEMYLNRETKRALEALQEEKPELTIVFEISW", "settings": "BMDM, dose 10.0 nM, time 1.0 hrs"}, "[2]": {"biological_target": "T1, NACHT, LRR and PYD domains-containing protein 3 (Mus musculus, UniProt Q8R4B8)", "T1 sequence (Q8R4B8 whole entry, the tested form may be a part)": "as above", "test": "Inhibition of NLRP3 inflammasome activation in mouse J774.A1 cells", "format": "cell-based"}, "[3]": {"biological_target": "NACHT, LRR and PYD domains-containing protein 3 (Mus musculus) (UniProt Q8R4B8)", "test": "Inhibition of NLRP3 inflammasome activation in LPS/ATP-induced C57BL/6 mouse BMDMs assessed as reduction in IL-1beta secretion at 200 nM preincubated with LPS for 4 hrs followed by compound addition for 30 mins and further stimulated with ATP for 30 mins by ELISA relative to control", "format": "cell-based", "settings": "BMDM, time 1.0 hrs"}, "[4]": {"test": "Stability in mouse liver microsomes assessed as half life preincubated for 5 mins with NADPH followed by compound addition and measured upto 120 mins by LC-MS/MS analysis", "format": "ADME, Microsome", "settings": "time < 125 min"}, "[5]": {"test": "Oral bioavailability in ICR mouse at 10 mg/kg measured upto 24 hrs by LC-MS/MS method", "format": "ADME, organism-based", "settings": "ICR, in vivo"}, "[6]": {"biological_target": "T1, NACHT, LRR and PYD domains-containing protein 3", "test": "Inhibition of NLRP3 inflammasome activation in LPS/ATP-induced C57BL/6 mouse BMDMs assessed as reduction in IL-1beta secretion preincubated with LPS for 4 hrs followed by compound addition for 30 mins and further stimulated with ATP for 30 mins by ELISA", "format": "cell-based, BMDM"}, "[7]": {"test": "Stability in rat plasma assessed as half life measured upto 8 hrs", "format": "ADME, cell-free"}, "[8]": {"test": "AUC in ICR mouse at 1 mg/kg, iv measured upto 24 hrs by LC-MS/MS method", "format": "ADME, organism-based", "settings": "ICR, in vivo"}, "[9]": {"biological_target": "Voltage-gated inwardly rectifying potassium channel KCNH2 (Homo sapiens, UniProt Q12809)", "sequence (Q12809 whole entry)": "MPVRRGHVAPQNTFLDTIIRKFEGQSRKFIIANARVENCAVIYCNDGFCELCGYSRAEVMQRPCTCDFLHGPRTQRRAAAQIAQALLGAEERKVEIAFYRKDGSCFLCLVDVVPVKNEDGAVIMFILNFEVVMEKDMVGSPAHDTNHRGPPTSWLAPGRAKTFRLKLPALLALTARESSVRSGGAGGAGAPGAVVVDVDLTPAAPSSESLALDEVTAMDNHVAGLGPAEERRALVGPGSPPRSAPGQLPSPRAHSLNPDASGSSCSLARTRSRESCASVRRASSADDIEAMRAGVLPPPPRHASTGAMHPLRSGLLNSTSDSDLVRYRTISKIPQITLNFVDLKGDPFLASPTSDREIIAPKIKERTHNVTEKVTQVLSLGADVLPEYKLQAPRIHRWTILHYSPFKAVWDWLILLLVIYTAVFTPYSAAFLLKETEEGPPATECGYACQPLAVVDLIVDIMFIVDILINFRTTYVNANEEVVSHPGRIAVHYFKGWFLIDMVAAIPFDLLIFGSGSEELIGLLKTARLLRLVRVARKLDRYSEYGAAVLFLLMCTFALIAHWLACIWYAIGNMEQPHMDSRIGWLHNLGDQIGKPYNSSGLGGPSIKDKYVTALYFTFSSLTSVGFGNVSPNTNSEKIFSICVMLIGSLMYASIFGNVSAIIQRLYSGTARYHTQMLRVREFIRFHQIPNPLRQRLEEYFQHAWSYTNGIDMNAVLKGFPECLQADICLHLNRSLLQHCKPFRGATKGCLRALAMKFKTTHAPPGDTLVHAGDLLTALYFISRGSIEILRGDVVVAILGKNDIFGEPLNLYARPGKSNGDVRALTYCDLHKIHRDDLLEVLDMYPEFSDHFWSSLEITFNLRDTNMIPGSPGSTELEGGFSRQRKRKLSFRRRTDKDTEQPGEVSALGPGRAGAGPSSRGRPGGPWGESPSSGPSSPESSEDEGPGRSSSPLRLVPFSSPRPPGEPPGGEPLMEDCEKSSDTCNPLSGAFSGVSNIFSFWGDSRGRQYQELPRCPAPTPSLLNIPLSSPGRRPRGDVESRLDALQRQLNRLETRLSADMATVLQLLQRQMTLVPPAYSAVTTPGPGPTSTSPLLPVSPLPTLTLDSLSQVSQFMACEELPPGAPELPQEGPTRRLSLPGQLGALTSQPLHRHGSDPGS", "test": "Inhibition of human ERG expressed in CHO cells", "format": "toxicity, cell-based"}, "[10]": {"test": "Stability in human plasma assessed as half life measured upto 8 hrs", "format": "ADME, cell-free"}, "[11]": {"test": "Clearance in ICR mouse at 1 mg/kg, iv measured upto 24 hrs by LC-MS/MS method", "format": "ADME, organism-based", "settings": "in vivo"}, "[12]": {"test": "Stability in mouse plasma assessed as half life measured upto 8 hrs", "format": "ADME, cell-free"}, "[13]": {"test": "Stability in human liver microsomes assessed as half life preincubated for 5 mins with NADPH followed by compound addition and measured upto 120 mins by LC-MS/MS analysis", "format": "ADME, Microsome", "settings": "time < 125 min"}, "hERG (KCNH2)": {"biological_target": "hERG (KCNH2) (Homo sapiens, UniProt Q12809)", "sequence (Q12809 whole entry)": "as above", "test": "Inhibition of human ERG expressed in CHO cells at 40 uM relative to control", "format": "toxicity, cell-based", "settings": "CHO cells that express human ERG"}, "[14]": {"test": "Cmax in ICR mouse at 10 mg/kg, po measured upto 24 hrs by LC-MS/MS method", "format": "ADME, organism-based", "settings": "in vivo"}, "[15]": {"test": "Half-life in ICR mouse at 1 mg/kg, iv measured upto 24 hrs by LC-MS/MS method", "format": "ADME, organism-based", "settings": "in vivo"}, "[16]": {"test": "Stability in rat liver microsomes assessed as half life preincubated for 5 mins with NADPH followed by compound addition and measured upto 120 mins by LC-MS/MS analysis", "format": "ADME, Microsome", "settings": "time < 125 min"}, "[17]": {"test": "Half-life in ICR mouse at 10 mg/kg, po measured upto 24 hrs by LC-MS/MS method", "format": "ADME, organism-based", "settings": "in vivo"}, "[18]": {"biological_target": "NACHT, LRR and PYD domains-containing protein 3 (Mus musculus) (UniProt Q8R4B8)", "test": "Inhibition of NLRP3 inflammasome activation in LPS/ATP-induced C57BL/6 mouse BMDMs assessed as reduction in IL-1beta secretion at 100 nM preincubated with LPS for 4 hrs followed by compound addition for 30 mins and further stimulated with ATP for 30 mins by ELISA relative to control", "format": "cell-based", "settings": "BMDM, time 1.0 hrs"}, "[19]": {"test": "AUC in ICR mouse at 10 mg/kg, po measured upto 24 hrs by LC-MS/MS method", "format": "ADME, organism-based", "settings": "ICR, in vivo"}, "[20]": {"biological_target": "NACHT, LRR and PYD domains-containing protein 3 (Mus musculus) (UniProt Q8R4B8)", "test": "Inhibition of NLRP3 inflammasome activation in LPS/ATP-induced C57BL/6 mouse BMDMs assessed as reduction in IL-1beta secretion at 500 nM preincubated with LPS for 4 hrs followed by compound addition for 30 mins and further stimulated with ATP for 30 mins by ELISA relative to control", "format": "cell-based", "settings": "BMDM, time 1.0 hrs"}, "[21]": {"test": "Selectivity index, ratio of CC50 for cytotoxicity against C57BL/6 mouse BMDMs to IC50 for inhibition of NLRP3 inflammasome activation in C57BL/6 mouse BMDMs", "format": "toxicity", "settings": "bone marrow-derived macrophages (BMDMs), read-out: Ratio CC50/IC50"}},
  "note": "The source made the active and inactive calls. The calls are words filed in the database; no cut-off is given here.",
  "data": [
    {"compound": "CC(C)(O)c1coc(S(=O)(=O)NC(=O)Nc2c3c(cc4c2CCC4)CCC3)c1", "values": [
      {"measurement": "Activity", "setting": "Mus musculus", "value": "Active"},
      {"measurement": "inhibition", "setting": "[1]", "value": 80.5, "unit": "%"}
    ]},
    {"compound": "CS(=O)(=O)/C=C/C#N", "values": [
      {"measurement": "IC50", "setting": "[2]", "value": 100, "unit": "nM"}
    ]},
    {"compound": "C=C1C(=O)[C@]23[C@H](O)[C@H]1CC[C@H]2[C@]12C=CCC(C)(C)[C@H]1[C@H](O)[C@@]3(OCc1cncs1)OC2", "values": [
      {"measurement": "inhibition", "setting": "[3]", "value": 93.9, "unit": "%"},
      {"measurement": "half-life", "setting": "[4]", "value": 3.13, "unit": "min"},
      {"measurement": "bioavailability", "setting": "[5]", "value": 0.64, "unit": "%"},
      {"measurement": "IC50", "setting": "[6]", "value": 50.2, "unit": "nM"},
      {"measurement": "half-life", "setting": "[7]", "value": 1.74, "unit": "h"},
      {"measurement": "AUC at 24 h", "setting": "[8]", "value": 337, "unit": "ng·h/mL"},
      {"measurement": "IC50", "setting": "[9]", "value": "> 40000", "unit": "nM"},
      {"measurement": "half-life", "setting": "[10]", "value": 5.99, "unit": "h"},
      {"measurement": "clearance", "setting": "[11]", "value": 49.1, "unit": "mL/min/kg"},
      {"measurement": "half-life", "setting": "[12]", "value": 1.9, "unit": "h"},
      {"measurement": "half-life", "setting": "[13]", "value": 4.22, "unit": "min"},
      {"measurement": "inhibition at 40 µM", "setting": "hERG (KCNH2)", "value": 43.3, "unit": "%"},
      {"measurement": "Cmax", "setting": "[14]", "value": 11.4, "unit": "ng/mL"},
      {"measurement": "half-life", "setting": "[15]", "value": 1.5, "unit": "h"},
      {"measurement": "half-life", "setting": "[16]", "value": 5.56, "unit": "min"},
      {"measurement": "half-life", "setting": "[17]", "value": 1.36, "unit": "h"},
      {"measurement": "inhibition", "setting": "[18]", "value": 77.3, "unit": "%"},
      {"measurement": "AUC at 24 h", "setting": "[19]", "value": 10.8, "unit": "ng·h/mL"},
      {"measurement": "inhibition", "setting": "[20]", "value": 97.3, "unit": "%"}
    ]},
    {"compound": "C=C1C(=O)[C@]23[C@H](O)[C@H]1CC[C@H]2[C@]12C=CCC(C)(C)[C@H]1[C@H](O)[C@@]3(OCCC(=O)N1CCOCC1)OC2", "values": [
      {"measurement": "inhibition", "setting": "[3]", "value": 83.9, "unit": "%"},
      {"measurement": "IC50", "setting": "[6]", "value": 72.2, "unit": "nM"},
      {"measurement": "selectivity ratio", "setting": "[21]", "value": 30.2},
      {"measurement": "inhibition", "setting": "[18]", "value": 62.7, "unit": "%"},
      {"measurement": "inhibition", "setting": "[20]", "value": 95.1, "unit": "%"}
    ]},
    {"compound": "CC(C)n1ccc(S(=O)(=O)NC(=O)Nc2c3c(cc4c2CCC4)CCC3)n1", "note": "[INZOMELID]", "values": [
      {"measurement": "inhibition", "setting": "[1]", "value": 42.7, "unit": "%"},
      {"measurement": "IC50", "setting": "[6]", "value": 14, "unit": "nM"}
    ]}
  ]
}
